Patent US20230285337A1, “LONG ACTING ANTICANCER COMPOSITIONS” (INTRAGEL THERAPEUTICS LTD., priority 2020, published 2023)

Columns and labels:
[1] = test system: Head and Neck Cancer tumor cells; assay: In vivo testing of the cisplatin formulation for head and neck cancer with radiotherapy; conditions: nude mice, treatment 20 days after cell injection, 8 Gy irradiation at day 21 and 24, terminated day 50
Method: In this study, 3 experimental groups were used, 6 nude mice per group. All mice were injected with 600000 tumor cells. […] Cisplatin solutions were injected IP for 4 consecutive weeks, a total of 4 administrations. The animals were irradiated with 8 Gy at day 21 and day 24. The experiment was terminated at day 50.

[2] = rat, in vivo, iv, 5 mg/kg
Method: Polymer-cisplatin was injected subcutaneously to mice at the amount 10, 20, 40 µL per mice that is 4, 8, 16 mg cisplatin/Kg. As controls, 50µL of the drug free polymer was injected and 200 µL IV injection at a dose of 5 mg/kg. The mice were observed daily for morbidity and mortality, and daily for general clinical signs (cage side observation): changes in the skin, fur, eyes, nose, mouth, head, respiration, urine, feces, locomotor, and overall wellness.
An animal showing one of the humane endpoints according to Clinical Signs″, SOP-06-019, were euthanized and subjected to the termination procedure. Blood collection for cisplatin content was at 0(baseline), 1 h, 4 h, 8 h, 24 h,48 h,96 h, 168 h, thereafter once weekly until week 4. Blood for CBC and Biochemistry was at: 0(Baseline), 24 h, 72 h, 168 h thereafter once weekly until sacrifice. For the IV injected mice, plasma was collected at 0(baseline), 5 m, 15 m, 30 m, 1 h, 2 h, 4 h, 8 h, 24 h, 48 h, 72 h, and 96 h. Whole blood and Blood Biochemistry was at 0(Baseline), 24h and 96h. Whole blood was collected from each animal and treated according to common procedures. Urine collection amount was recorded at 0-6, 12-24, 48-72h, 72-96h, 96-120h and once weekly thereafter.

[NH2][Pt]([NH2])([Cl])[Cl] [cisplatin solution, Cisplatin]
effect on the tumor (tumor size) [1]: did not show any effect on the tumor
blood count (HGB, RBG & HCT) [2]: drastic drop in markers
body weight [2]: lower body weight
kidneys performance (creatinine and urea excretion) [2]: deteriorated kidneys performance
side effects, behaviour after injection [2]: severe side effects
